{"source": "patent US11110195B2", "about": "“Esculentin 1a derivatives and uses thereof” (University of Houston System, priority 2013, dated 2021)", "key": {"[1]": {"test": "MTT viability assay, A549 cells", "details": "human", "description": "Cell viability is expressed as percentage with respect to the control (cells not treated with the peptides). Data points represent the mean of triplicate samples ±SEM. […] The levels of statistical significance between the two peptides are indicated as follows: **p<0.01, ***p<0.001.\nCells were plated in wells of a microtiter plate, at 4×10^4 cells/well in DMEM supplemented with 2 mM glutamine and 2% FBS (for A549 cells) or DMEM containing 2 mM glutamine, non-essential amino acids (NEAA), sodium pyruvate and 2% FBS (for Raw 264.7 macrophages). After overnight incubation at 37° C. in a 5% CO2 atmosphere, the medium was replaced with 100 μl fresh serum-free medium supplemented with the peptides at different concentrations. After 24 h of peptide treatment, cell viability was determined by a MTT assay."}, "[2]": {"tested_on": "human telomerase immortalized corneal epithelial cells (hTCEpi)", "test": "Wound healing (cell migration) assay, corneal epithelial cells", "format": "cell-based", "details": "hTCEpi monolayer", "description": "The percentage of cell-covered area at each time point was determined and is reported on the y-axis. Control (Ctrl) represents cells not treated with the peptide. All data are the mean of at least three independent experiments ±SE.\nTo determine cell migration after treatment with Esc-1a(1-21)NH2, a wound healing assay was performed using human telomerase immortalized corneal epithelial cells (hTCEpi) (FIG. 9). Cells were cultured in Keratinocyte growth Medium-2 supplemented with growth factors and Normocin […] (KGM-2g). Cell migration was studied as follows: hTCEpi cells (70,000) suspended in KGM-2g were seeded on each side of ibidi culture inserts for live cell analysis (Ibidi, Munich, Germany). Inserts were placed into 35 mm dishes and incubated at 37° C. and 5% CO2 to allow cells grow to confluence. Afterwards, inserts were removed with sterile tweezers to create a cell-free area (“wound”) of approximately 500 μm; after a wash with 1 ml of PBS, 1 ml of Dulbecco's modified Eagle's medium (DMEM) supplemented with 4 mM L-glutamine, 5% fetal bovine serum (FBS) and the peptide at different concentrations was added. The dishes with inserts were placed in an appropriate incubator and the cells were allowed to migrate. […] The percentage of cell-covered area at each time was determined by WIMASIS Image Analysis program. […]"}, "[3]": {"tested_on": "P. aeruginosa ATCC 27853", "test": "Bactericidal activity in the presence of reflex human tears", "format": "cell-based, Pseudomonas aeruginosa", "details": "10 μM or 20 μM peptide, 50% or 70% reflex tears", "description": "FIG. 3A: Bacterial cells were incubated with 10 μM or 20 μM peptide in the presence of 50% reflex tears induced by onion vapors and pooled from three consenting adult volunteers with a normal ocular surface. FIG. 3B: Bacteria were incubated with 20 μM peptide in the presence of 70% reflex tears. In both cases, aliquots were withdrawn for cell counting at different time intervals. Mean data, expressed as the percentage of bacteria killed by the peptide are shown.\n2×10^6 CFU/ml P. aeruginosa (ATCC 27853) were incubated with 10μM or 20μM Esc-1a(1-21)NH2 in the presence of 50% (FIG. 3A) or 70% (FIG. 3B) human reflex tears and aliquots withdrawn, plated and counted after 30, 90 and 120 minutes (n=3)."}, "[4]": {"tested_on": "P. aeruginosa ATCC 27853", "test": "Bactericidal activity in the presence of salt (NaCl)", "format": "cell-based, Pseudomonas aeruginosa", "details": "150 mM NaCl, 37° C., 20 min", "description": "FIGS. 1A-1B show the effects of salt on the bactericidal activity of Esc-1a(1-21)NH2 against P. aeruginosa ATCC 27853. FIG. 1A: Bacterial cells were incubated with different concentrations of Esc-1a(1-21)NH2 in the presence of 150 mM NaCl for 20 minutes at 37° C. Mean data from three experiments, expressed as the percentage of bacteria killed by the peptide with respect to the control sample (bacteria not treated with the peptide) are reported. FIG. 1B: Bacterial cells were incubated with the peptide (1 μM) in the absence or in the presence of varying concentrations of NaCl at 37° C. for 20 minutes. Mean data from three experiments, expressed as the percentage of bacteria killed by the peptide with respect to the control sample (bacteria not treated with the peptide) are reported.\nOwing to their mode of action, the antimicrobial activity of antimicrobial peptides may be reduced in the presence of salt. […] In FIG. 1B, 2×10^6 CFU/ml P. aeruginosa (ATCC 27853) were incubated with 1 μM Esc-1a(1-21)NH2 in the presence of increasing amounts of NaCl at 37° C. for 20 minutes then aliquots plated and counted (n=3). Concentrations of Esc-1a(1-21)NH2 at 0.68 μM and above fully retained activity in 150 mM NaCl, the physiological salt concentration at the ocular surface."}, "[5]": {"tested_on": "Pseudomonas aeruginosa", "details": "Pseudomonas aeruginosa ATCC 27853, reference strain; cited from earlier work"}, "[6]": {"tested_on": "TNF-α secretion from LPS-stimulated RAW264.7 macrophages", "test": "Anti-endotoxin activity: TNF-α release from LPS-stimulated macrophages (ELISA)", "format": "cell-based, murine", "details": "LPS 10 ng/ml, 4 hours", "description": "RAW264.7 cells were stimulated with LPS (10 ng/ml) derived from P. aeruginosa 10 in the presence of 1, 5, 10 and 20 μM Esc-1a(1-21)NH2 for 4 hours at 37° C. and 5% CO2. The percentage of inhibition of TNF-α release was normalized to that of macrophages stimulated with LPS without peptide (0% inhibition).\nMacrophages (Raw 264.7) were cultured overnight in 96-well plates (1×10^5 cells/well) in DMEM supplemented with 2 mM L-glutamine, 1 mM sodium pyruvate, non-essential amino acids (NEAA), and 10% FBS. The medium was then removed and replaced with fresh medium containing LPS (10 ng/ml final concentration) and the peptide at different concentrations. Cells were incubated at 37° C. for 4 h, after which the medium was collected and TNF-α concentration in the samples was evaluated using a mouse TNF-α enzyme-linked immunosorbant assay kit according to the manufacturer's protocol (ELISA, Biosource). Cells that were stimulated with LPS alone, and untreated cells served as controls. All experiments were done in triplicate."}}, "note": "Residues, ends and D or L forms follow the SMILES beside them.", "data": [{"smiles": "CC[C@H](C)[C@H](NC(=O)CN)C(=O)N[C@@H](Cc1ccccc1)C(=O)N[C@@H](CO)C(=O)N[C@@H](CCCCN)C(=O)N[C@@H](CC(C)C)C(=O)N[C@@H](C)C(=O)NCC(=O)N[C@@H](CCCCN)C(=O)N[C@@H](CCCCN)C(=O)N[C@H](C(=O)N[C@@H](CCCCN)C(=O)N[C@@H](CC(N)=O)C(=O)N[C@@H](CC(C)C)C(=O)N[C@@H](CC(C)C)C(=O)N[C@H](C(=O)N[C@@H](CO)C(=O)NCC(=O)N[C@@H](CC(C)C)C(=O)N[C@@H](CCCCN)C(=O)NCC(N)=O)[C@@H](C)CC)[C@@H](C)CC", "note": "[Esc-1a(1-21)NH2] (H-GIFSKLAGKKIKNLLISGLKG-NH2; N-terminus assumed)", "values": [{"measurement": "CC50 at 24 h", "setting": "[1]", "value": 150, "unit": "µM"}, {"measurement": "optimal concentration allowing complete coverage of the wound field", "setting": "[2]", "value": 0.005, "unit": "µM"}, {"measurement": "time to maximum cell-covered area after peptide addition", "setting": "[2]", "value": "9 to 12", "unit": "h"}, {"measurement": "retention of activity in reflex tears", "setting": "[3]", "value": "activity was retained"}, {"measurement": "Peptide concentration fully retaining bactericidal activity", "setting": "[4]", "value": "≥ 0.68", "unit": "µM"}, {"measurement": "MIC", "setting": "[5]", "value": 4, "unit": "µM"}, {"measurement": "inhibition of TNF-α secretion", "setting": "[6]; 10 μM peptide", "value": "~80", "unit": "%"}, {"measurement": "inhibition of TNF-α secretion", "setting": "[6]; 20 μM peptide", "value": "~90", "unit": "%"}]}]}
